Here are results for 1 compound from paper PMC10144546, “The Novel Artemisinin Dimer Isoniazide ELI-XXIII-98-2 Induces c-MYC Inhibition, DNA Damage, and Autophagy in Leukemia Cells” (Pharmaceutics, 2023).

The target in the assay is T1, c-MYC (Homo sapiens, UniProt P01106).
T1 construct: Recombinant human c-MYC protein (ab169901)
Description: microscale thermophoresis with fluorescently labelled recombinant human c-MYC. Format: binding. (MST reads how a fluorescent partner responds to local heating, with and without ligand.)

T1 sequence (P01106 16-454): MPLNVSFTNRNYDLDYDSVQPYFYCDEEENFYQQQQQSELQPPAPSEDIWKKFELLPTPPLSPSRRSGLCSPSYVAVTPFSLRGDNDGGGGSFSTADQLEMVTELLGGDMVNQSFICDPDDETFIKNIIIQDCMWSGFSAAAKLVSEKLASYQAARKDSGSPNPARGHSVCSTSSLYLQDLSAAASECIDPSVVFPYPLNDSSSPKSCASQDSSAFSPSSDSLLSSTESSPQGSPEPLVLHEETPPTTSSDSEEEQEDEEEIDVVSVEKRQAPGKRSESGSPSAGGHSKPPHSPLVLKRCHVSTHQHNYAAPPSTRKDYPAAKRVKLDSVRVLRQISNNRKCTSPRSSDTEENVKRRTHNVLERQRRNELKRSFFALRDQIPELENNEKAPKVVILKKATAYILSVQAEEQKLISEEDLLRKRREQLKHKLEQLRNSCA

What is called Kd is the equilibrium constant for the complex coming apart. With `C[C@H]1[C@@H](OCC(CO[C@H]2O[C@@H]3O[C@@]4(C)CC[C@H]5[C@H](C)CC[C@@H]([C@H]2C)[C@@]35OO4)NNC(=O)c2ccncc2)O[C@@H]2O[C@@]3(C)CC[C@H]4[C@H](C)CC[C@@H]1[C@@]24OO3` (stereo partly shown) [ELI-XXIIID-98-2, ELI-XXIII-98-2], the Kd is 1190 ± 240 nM.
